# Laboratory results published in patent publication US7741047B2, “Method for treating autoimmune diseases and screening method for preventive or therapeutic agent for the same” (Kowa Co., Ltd., priority 2003, dated 2010).
# Tests used:
# [1] = system: RHO cells (RBAp48-stable cell line from HSG cells); assay: Apoptosis of RBAp48-stable cell line after addition of IPTG; type: cell-based, human; details: from two hours to twelve hours after addition of IPTG
# Text: (§1) A stable cell line in which RBAp48 expression is stably regulated by addition of IPTG to the culture system is established by means of LacSwitch II Inducible Mammalian Expression System (STRATEGENE) through use of HSG cells (RHO cell). […] Separately, the RHO cells were investigated in terms of cell cycle related molecules (i.e., RBs, phosphorylated RB, CyclinD3, and p19ARF) in the cell lysates six hours after addition of IPTG, through western blotting by use of the corresponding antibodies (BD Transduction Laboratory). […] In addition, a nuclear extract of IPTG-added RHO cells was subjected to gel shift assay.
# [2] = system: ERαKO-mouse-derived MSG cells; assay: Apoptosis induction of cultured cells, Annexin-V-FITC flow cytometry; type: cell-based; details: Tam 10^−7 M, 48 hours
# Experimental: (§2) Cells of each of the following cell lines were cultured through a routine method; mouse salivary gland cell lines (MSG:B6 and ERαKO); human salivary gland cell line (HSG); human breast cancer cultured-cell line (MCF-7); human acute T cell leukemia cell line (Jurkat); and human colon cancer cultured-cell lines (HT-29 and Colo201). The cultured cells were reacted with tamoxifen (Tam, final concentration: 10^−7 M), an antagonist of estrogen. […] Separately, the above cultured cells were reacted with staurosporin (an apoptosis inducer, final concentration: 10^−6 M), and the resultant cells were used as a positive control group. Forty-eight hours after the addition of Tam, apoptosis of the cells was determined by means of a flow cytometer, by use of Annexin-V-FITC.
# [3] = system: human salivary gland cell line (HSG); assay: as above; type: cell-based; details: Tam 10^−7 M, 48 hours after addition, compared with groups without Tam
# Experimental: as §2
# [4] = system: mouse salivary gland cell line MSG (B6); assay: as above; type: cell-based; details: Tam 10^−7 M, 48 hours after addition, compared with groups without Tam
# Experimental: as §2
# RBAp48 mRNA in HSG cells = assay: Northern blotting of genes with enhanced expression by anti-estrogen effect; type: cell-based, human
# [5] = system: human breast cancer cultured-cell line (MCF-7); details: MCF-7 cells, previously known; cited from earlier work
# [6] = system: RHO cells (RBAp48-stable cell line from HSG cells); assay: Effect of siRNA on RBAp48-induced apoptosis, Annexin-V-FITC flow cytometry; type: cell-based, human; details: 50 nM siRNA by lipofection, IPTG 24 h after transfer, culture 8 h
# Text: as §1
# siRNA of RBAp48 was prepared (sense; CGAGGAAUACAAAAUAUGGTT (SEQ ID NO: 1), antisense; CCAUAUUCUGUAUUCCUCGTT (SEQ ID NO: 2)). […] The percent apoptotic cells of the cultured cells was determined by means of a flow cytometer, by use of Annexin-V-FITC.
# [7] = system: MSG:B6, ERαKO, HSG, MCF-7, Jurkat, HT-29 and Colo201 cells; assay: Apoptosis induction of cultured cells, positive control groups; type: cell-based; details: staurosporin 10^−6 M, all cell groups, not differing from one group to another
# Experimental: as §2
compound,measurement,setting,value
"CC(C)S[C@@H]1O[C@H](CO)[C@H](O)[C@H](O)[C@H]1O [IPTG, isopropyl-β-D-thiogalactoside]",percent apoptotic cells,[1],increase over time
CC/C(=C(\c1ccccc1)c1ccc(OCCN(C)C)cc1)c1ccccc1 [tamoxifen],apoptosis induction,[2],not to be induced
same,percent apoptotic cells,[3],significantly high
same,percent apoptotic cells,[4],significantly high
same,mRNA (RBAp48 gene) expression,"RBAp48 mRNA in HSG cells; tamoxifen 10^−7 M, northern blotting",enhanced expression
same,RBAp48 mRNA expression,RBAp48 mRNA in HSG cells; two hours after Tam stimulation,strong RBAp48 mRNA expression
same,apoptosis induction,[5],known to be induced
"RBAp48 siRNA: siRNA of RBAp48: sense CGAGGAAUACAAAAUAUGGTT (SEQ ID NO: 1), antisense CCAUAUUCUGUAUUCCUCGTT (SEQ ID NO: 2)",apoptosis induced by addition of IPTG,[6],significantly suppressed
CN[C@@H]1C[C@H]2O[C@@](C)([C@@H]1OC)n1c3ccccc3c3c4c(c5c6ccccc6n2c5c31)C(=O)NC4 [staurosporin],percent apoptotic cells,[7],high
